Data from the NIST ThermoML archive (doi:10.1021/je100581m).

Assay: xn = mol fraction of the nth substance listed
Conditions: Liquid, Vibrating tube method

C=CC(C)(O)CCC=C(C)C (stereo not given) [3,7-dimethyl-1,6-octadien-3-ol] + CCO
mass density [kg/m3]
Conditions	x2 = 0	x2 = 0.1129	x2 = 0.1935	x2 = 0.3045	x2 = 0.4023	x2 = 0.5121	x2 = 0.6055	x2 = 0.7008	x2 = 0.8009	x2 = 0.9009
283.15 K, 100 kPa	869.2	866.8	865.6	862.7	859.9	855.3	850.3	843.1	832.7	818.2
283.15 K, 5000 kPa	872.3	869.9	868.7	866	863.1	858.5	853.5	846.5	836.3	822
283.15 K, 10000 kPa	875.2	872.9	871.7	869	866.1	861.6	856.8	849.7	839.6	825.5
283.15 K, 15000 kPa	878.2	875.9	874.8	872.1	869.2	864.8	860.1	853	843.1	829.2
283.15 K, 20000 kPa	881	878.8	877.6	874.9	872.1	867.7	862.9	856.1	846.3	832.5
298.15 K, 100 kPa	856.9	854.5	853.4	850.5	847.6	843	838	830.9	820.6	805.9
298.15 K, 5000 kPa	860.1	857.8	856.7	853.9	851	846.5	841.4	834.6	824.4	809.9
298.15 K, 10000 kPa	863.5	861.1	860	857.2	854.4	850	845.1	838.2	828.1	813.9
298.15 K, 15000 kPa	866.6	864.3	863.2	860.5	857.7	853.2	848.4	841.6	831.7	817.7
298.15 K, 20000 kPa	869.6	867.4	866.3	863.6	860.8	856.4	851.7	844.9	835.1	821.3
313.15 K, 100 kPa	844.1	841.7	840.6	837.8	834.7	830.2	825.3	818	807.9	793.2
313.15 K, 5000 kPa	847.8	845.4	844.4	841.6	838.6	834.1	829.3	822.3	812.1	797.7
313.15 K, 10000 kPa	851.3	849	847.9	845.2	842.3	837.8	833.1	826.1	816.1	801.9
313.15 K, 15000 kPa	854.8	852.5	851.4	848.7	845.8	841.4	836.7	829.8	820	806
313.15 K, 20000 kPa	858.1	855.8	854.8	852.1	849.2	844.9	840.2	833.4	823.7	809.8
328.15 K, 100 kPa	831.3	828.9	827.8	824.9	821.8	817.3	812.3	805.2	794.9	780.2
328.15 K, 5000 kPa	835.2	832.9	831.8	828.9	825.9	821.4	816.6	809.5	799.4	784.9
328.15 K, 10000 kPa	839.1	836.9	835.8	832.9	829.9	825.5	820.6	813.9	803.9	789.6
328.15 K, 15000 kPa	842.7	840.5	839.4	836.6	833.7	829.3	824.5	817.8	808	793.9
328.15 K, 20000 kPa	846.3	844.1	843	840.3	837.3	833	828.4	821.6	811.9	798.1
